Measured values as given in patent US7205261B2, “Use of certain N-acylethanolamines to achieve ethylene- and cytokinin-like effects in plants and fungi” (Nutra-Park, Inc., priority 2002, dated 2007).
Read-outs that look alike come from different tables or passages of the source.

Assays:
[1] = tested on: tomato variety FL47 mature green tomatoes; assay: Tomato bioassay (spray application or vacuum infiltration of harvested mature green tomatoes, ripening judged by colour); type: in vivo; details: 5 to 7 days after treatment, FIGS. 2-5
Method: Tomato bioassay: NAE solutions containing 20 ppm or 500 ppm of NAE were used to treat harvested tomatoes as described below. The solutions were prepared by dispersing a solid NAE compound in water through sonication.
Egg LPE was purchased from Avanti Polar Lipids (Alabaster, Ala.). Egg LPE solutions containing 20 ppm or 500 ppm LPE were used as positive controls in the assays described below. The solutions were prepared by dispersing LPE into water through sonication or aggressive agitation.
The tomatoes used in this study were tomato variety FL47 (cultivar), 6×6 mature green tomatoes of good quality MG3–4 ([…]: no apparent external change from green to pink). The tomatoes were purchased from West Coast Tomato (Palmetto, Fla.) and Dimare Tomato (Homestead, Fla.).
The system used for classifying tomato mature stages is as the follows: Green (Stage 1)—“Green” means that the surface of the tomato is completely green in color. The shade of green may vary from light to dark. Breakers (Stage 2)—“Breakers” means there is a definite “break” in color from green, to tannish-yellow, pink or red on not more than 10% of the surface. […] Red (R) (Stage 6)—“Red” means that more than 90% of the surface, in the aggregate, is red.
Locules contain hard, white substance. […] Seeds are forming and are white. […] Seeds are fully formed and are turning from white to beige. MG4-Fruit are softening a little but still completely green on the outside. Inside locular gel is completely formed with hints of pink coloration in the columella tissue. Seeds are dark beige to light brown.
In spray application bioassays, the tomatoes were placed in 100° F. water for 90 seconds, after which the tomatoes were removed from water and placed stem scar up onto a sheet of plastic. An NAE solution or LPE solution was sprayed onto the tomatoes at 30 psi using a flat fan tip situated approximately 8 to 10 inches above the tomatoes. The tomatoes were air dried and placed on a sheet of white paper with stem scar down under consistent environmental conditions. Five to seven days later, the ripening of the tomatoes were determined by visual observation of the color of the tomatoes.
In vacuum infiltration bioassay, each tomato was placed on top of a vacuum bell jar platform with stem scar facing up. 0.5 ml of NAE solution or LPE solution was placed onto stem scar and the glass bell jar lid was lowered onto the jar platform. The vacuum was started and the air escaped from the interior of the tomato causing the NAE solution or the LPE solution on the stem scar to bubble. After a preset time period, the air inlet was opened slowly to release vacuum in the bell jar. […] Five to seven days later, the ripening of the tomatoes were determined by visual observation of the color of the tomatoes.

[2] = tested on: Raphanus sativus L. cv. Cherry Belle cotyledons; assay: Radish cotyledon bioassay (expansion growth and chlorophyll accumulation); type: in vivo; details: for Change in fresh weight: continuous illumination, 25° C., ten cotyledons; for activity at 20 µg/mL: Raphanus sativus, read-out: Change in fresh weight, % of control
Excerpt: Radish cotyledon bioassay: This bioassay using Raphanus sativus L. cv. Cherry Belle cotyledons was developed by Letham, DS (Physiologia Plantarum 25, 391–396, 1971, incorporated by reference in its entirety) to evaluate the efficacy of cytokinin on cell enlargement. Success using this assay is not restricted to radish. […] In addition to their effect on cell division, cytokinin plays a major role in driving cell enlargement. Compounds in this class of phytohormone and with cytokinin activity also help maintain photosynthetic activity and productivity and abolish proteolytic activity. In cotyledon leaf systems, a requirement for cytokinin is critical and removal of the roots (i.e. the presumed source of cytokinin) renders the cotyledon leaves unable to expand. Exposure to cytokinin (0.02–22 μg/ml) results in a dramatic increase in fresh weight of cotyledons within 72 hours. This effect is not observed with either gibberellin or auxin and is usually delayed or inhibited by abscisic acid and the ethylene precursor, 1-aminocyclopropane-1-carboxylic acid (ACC). […] Thus, the mode of action of cytokinin in this system appears to be similar to that of indole-3-acetic acid (IAA) in auxin-induced stem elongation, a process that depends on an increase in the mechanical extensibility of the cell wall. However, cytokinin antagonizes IAA-mediated cell elongation and appears to do so by promoting ethylene production. Furthermore, cytokinin-induced cell expansion is not usually accompanied by proton (H^+) extrusion and no change in plasma membrane ATPase activity is evident.
Seeds of Raphanus sativus L. cv. Cherry-Belle were germinated in darkness at 24° C. for 36 h in Petri dishes containing filter paper wetted with distilled water. The smaller of the two cotyledons was excised, the fresh weight determined, and 10 cotyledons placed adaxial side down on filter paper in Petri dishes containing 10 ml of KPO4 buffer (2 mM, pH 6.0) and the compounds to be tested at 20 mg/l. […] Chlorophyll content was determined after extraction of tissue into 80% ethanol (containing butylated hydroxytoluene (BHT) 10 mg/l) using the equations Chl a=(13.95A663)−(6.88A647) and Chl b=(24.96A652)−(7.32A663) as described by Lichtenthaler, HK, Methods in Enzymology 148: 350–382, 1987, incorporated by reference in its entirety. FIG. 6 illustrates the difference in cotyledon size in response to the cytokinin kinetin.

maize roots = assay: Corn root bioassay (ethylene production by maize roots); type: in vivo, Zea mays L.; details: 20 mg/l; for activity at 20 µg/mL: Zea mays, read-out: Ethylene, % of control
Method: Corn root bioassay: It is well established that roots of Zea mays produce ethylene when exposed to a variety of stresses (for review, see Morgan, PW and Drew, MC, Physiologia Plantarum 100: 620–630, 1997). Mechanical impedance and hypoxia both induce ethylene formation and usually as early as 1 hour after exposure. In response to ethylene treatment, maize roots show decreased expansion and elongation, a high incidence of cell death and the formation of aerenchyma tissue—particularly evident when roots are exposed to hypoxic conditions (Drew, MC et al., Trends in Plant Science 5: 123–127, 2000, Morgan and Drew 1997).
Seeds of Zea mays L. were sown in flats of Perlite, covered with a layer of vermiculite, and irrigated daily with water and/or 1/10 Hoagland solution. Seedlings were cultivated under continuous illumination at 22–25° C. and used when 7 d old. Seedlings were removed from the Perlite and washed under running tap water. Seedlings were allowed to acclimate in water and/or 1/10 Hoagland solution for several hours before being transferred to Falcon tubes containing the test compounds (all 20 mg/l) prepared in 1/10 Hoagland solution. […] Roots were then transferred to gas-tight tubes each containing 200 μl of water. The tubes were sealed and incubated at 26° C. for 1–2 h in darkness before gas samples were drawn from the incubation tubes using a 1 ml syringe and assayed by gas chromatography (Romera, FJ et al. (1999) Annals of Botany 83, 51–55).

[3] = Table 3, 48 h incubation, 20 mg/l
[4] = summary statement in the description

SMILES | number of ripened tomatoes compared to the control group ([1]; sprayed with 500 ppm) | number of ripened tomatoes compared to the control group ([1]; vacuum infiltrated with 20 ppm) | Chlorophyll a/b ([2]; Experiment 1, 20 mg/l, 72 h) | Change in fresh weight ([2]; Experiment 1, 20 mg/l, 72 h) [mg] | Chlorophyll (mg/g FW) a + b ([2]; Experiment 2, 20 mg/l, 48 h) [mg/g FW] | Chlorophyll (μg/cotyledon) a + b ([2]; Experiment 2, 20 mg/l, 48 h) [μg/cotyledon] | Chlorophyll a/b ([2]; Experiment 2, 20 mg/l, 48 h) | Change in fresh weight ([2]; Experiment 2, 20 mg/l, 48 h) [mg] | activity at 20 µg/mL ([2]; Experiment 1, 20 mg/l, 72 h) [%] | activity at 20 µg/mL ([2]; Experiment 2, 20 mg/l, 48 h) [%] | chlorophyll content per unit mass (in words) [2, 3] | chlorophyll per cotyledon (in words) [2, 3] | hormone-like activity with respect to expansion growth (in words) [2, 3] | cytokinin-like activities (summary of the examples) [2, 4] | ethylene-like activities (summary of the examples) [2, 4] | activity at 20 µg/mL (maize roots; experiment 1, 72 h) [%] | activity at 20 µg/mL (maize roots; experiment 2, 36 h) [%] | Ethylene (maize roots; experiment 2, 36 h illumination, roots incubated 2 h in darkness at 24° C.) [pmol/g FW/h]
CCCCCCCCCC(=O)NCCO [NAE-10:0, N-Decanoyl-2-aminoethanol] | higher number of ripened tomatoes | higher number of ripened tomatoes | 1.5 | 10.34 ± 3.28 | 1.41 | 22.57 | 1.8 | 11.56 ± 2.16 | 74 | 143 | decreased chlorophyll content per unit mass | increased chlorophyll per cotyledon | cytokinin-like activity | cytokinin-like activities | ethylene-like activities | 124 | 115 | 33.02 ± 9.63
CCCCCCCCCCCCCC(=O)NCCO [NAE-14:0, N-Tetradecanoyl-2-aminoethanol] | higher number of ripened tomatoes | higher number of ripened tomatoes | – | – | 1.90 | 23.41 | 1.8 | 7.91 ± 1.34 | – | 98 | – | – | – | cytokinin-like activities | – | – | – | –
